# Laboratory results taken from a melting point compilation (Tetko et al.; mined from patent text by program, amines drawn as free bases though some values may be those of a salt).
row,SMILES,melting point [°C]
1,O=C(c1ccc(O)cc1)c1nn(C2CCCC2)c2c(C(F)(F)F)cccc12,225 to 226
2,CC1(C)Cc2cc(Cl)ccc2C=[N+]1[O-],64.5 to 66.5
3,CNC(=O)Cc1cccc(NC(=O)NC)c1,175 to 177
4,Cn1cc(C2=CCN(CCCN3c4cccc5cccc(c45)S3(=O)=O)CC2)c2ccccc21,161
5,Cc1ccc(C)c2c1CCC2=NNC(N)=Nc1c(Cl)cccc1Cl,> 275
6,O=C(O)c1cnc(Nc2cccc(C(F)(F)F)c2)[nH]c1=O,252 to 254
7,OCCOc1cccc2c1OCO2,56 to 57
8,O=C(CN1CCN(c2ccc([N+](=O)[O-])cc2)CC1)Nc1ccc(Nc2ccccc2)cc1,212 to 213
9,N#CNC(=NCCO[N+](=O)[O-])c1cncc(N)c1,121
10,CNS(=O)(=O)c1cccnc1S(=O)(=O)NC(=O)Nc1nc(OC)cc(OC)n1,147 to 148
11,CC(C)OC(=O)C1C(=S)NCC1C (stereo not drawn),41 to 44
12,Cc1ccc(-c2ccc(Sc3ccccc3)s2)cc1,85 to 86
13,CNC(=O)c1c(I)c(NC(C)=O)c(I)c(C(=O)NCCC(=O)O)c1I,190
14,Fc1cccc(C2=NOCCS2)c1,47 to 49
15,Fc1cc(Br)ccc1-c1ccc(Cl)cc1Cl,63 to 65
16,O=C(NC1CCCCC1)c1c(O)c2cccnc2n(Cc2ccccc2)c1=O,143
17,CS(=O)(=O)c1ccc(C(=O)O)c(Cl)c1CC#N,169 to 172
18,C[C@@H](CO)[C@](O)(Cn1cncn1)c1ccc(F)cc1F,93 to 95
19,Cc1cc(C#N)cc(C(=O)c2c(C(C)C)c(=O)[nH]c(=O)n2CC2(CC(=O)O)CC2)c1,244 to 245
20,COc1cc(OC)nc(OC(C(=O)O)C(OC)(c2ccccc2)c2ccccc2)n1 (stereo not drawn),16 to 17
21,c1nc(SCC2CCCC2)n[nH]1,48 to 55
22,O=C(c1ccccc1)N(c1ccccc1)c1ccc(O)cc1,257 to 260

row,SMILES,melting point [°C]
1,COc1cc(C)c(/C=C/c2nc3c(c(=O)n(C)c(=O)n3C)n2C)cc1C,> 280
2,COC(=O)c1c(NC(C)C)cccc1S(=O)(=O)NC(C)(C)C,110 to 112
3,CC1Cc2cc3c(cc2C(c2ccc([N+](=O)[O-])cc2)=NN1c1nnns1)OCO3 (stereo not drawn),109 to 110
4,CCCn1c(-c2c(Cl)cccc2Cl)nc(-c2ccncc2)c1-c1ccc(Cl)cc1,220 to 222
5,NS(=O)(=O)c1ccc(-c2oc3cc(F)ccc3c(=O)c2-c2ccc(Cl)c(Cl)c2)cc1,190 to 191
6,O=C1Nc2cccc(NC(=O)c3cccn(-c4ccc(F)cc4)c3=O)c2/C1=C/c1ccc[nH]1,> 300
7,CCOC(=O)c1ccn(-c2ccc(OC(F)(F)F)cc2)n1,76 to 78
8,OC(Cn1cncn1)c1ccc(Cl)cc1Cl (stereo not drawn),87
9,CN(C)c1ccc(C2(c3ccc(N(C)C)cc3N(C)C)OC(=O)c3ccccc32)c(N(C)C)c1,186 to 188
10,N#CCc1cc(Cl)c(C(=O)c2ccc(Cl)cc2)[nH]1,194 to 197
11,CCC(CSC#N)Nc1ccc(Cl)cc1[N+](=O)[O-] (stereo not drawn),126 to 128
12,NS(=O)(=O)Cc1ccccc1OC(F)(F)F,127
13,COc1cc2c(Nc3ccc(Cl)cc3F)ncnc2cc1OCCCSc1nccn1C,199 to 201
14,Cc1cccc(-c2cc(Cl)cc3c2OC(CN=[N+]=[N-])C3)c1 (stereo not drawn),48 to 50
15,COc1nc(N)nc2c1ncn2/C=C1\CC1(CO)CO,179 to 180
16,O=C(O)CN1C(=O)C(=CC2CC=CCC2)SC1=S (stereo not drawn),191 to 193
17,COc1ccc(S(=O)(=O)C(C)(CC2CCCCC2)C(=O)NO)cc1 (stereo not drawn),58
18,Fc1cccc(COc2ccc(Nc3ncnc4sc(C#Cc5ncccn5)cc34)cc2Cl)c1,225
19,Cc1ccc(-c2nn3cccnc3c2CC(=O)N(C)C)cc1,164 to 165
20,O=C(CNCCO)Nc1cccc([N+](=O)[O-])c1,145 to 147
21,N#CCC1(C#N)CCC2(CC1)OCCO2,137
22,O=C1c2ccccc2-c2c1c1ccccc1c(=O)n2CCCCCCNS(=O)(=O)c1ccccc1,150 to 152

# Continued, values first:
row,melting point [°C],SMILES
1,131 to 132,COC(=O)c1cc(CO)ccc1OCc1nc(-c2ccco2)oc1C
2,92,CCOc1ccc(C=C(CSC(C)=O)C(=O)NCCC(=O)OCc2ccccc2)cc1
3,103,Nc1cc(-c2ccccc2)cc2ccccc12
4,210,CCOC1=CC(=O)N([C@@H]2c3cc(C#N)ccc3OC(C)(C)[C@H]2O)C1
5,98 to 99.5,CCCCC/C(=C\C=C\C(=O)O)c1ccc(OC)c(OC)c1
6,64 to 65,CCOC(=O)c1cnc(Nc2cc(OC)c(OC)c(OC)c2)nc1-c1ccccc1
7,212 to 214,O=C(O)c1ccc(C(=O)/C=C/c2ccc(N3CCCC3)c(-c3cccs3)c2)cc1
8,132 to 133,O=C1NC(=O)C(CCCc2ccc(O)cc2)O1 (stereo not drawn)
9,213,O=C(O)c1cc(NC(=O)C(F)(F)F)c(C(=O)c2ccccc2)c(OCc2ccccc2)c1
10,85 to 86,COc1nc2ccc(Br)cc2cc1C(Br)c1ccccc1 (stereo not drawn)
11,265 to 267,COC(=O)c1cc(-c2cccc(C(=O)O)c2)c2cc(Cc3ccc(F)cc3)cnc2c1O
12,86 to 87,Cc1ccc(-c2ccc3c(c2)C(=O)CCC3)cc1
13,160 to 162,CCOC(=O)C(CC)Oc1cccc(N2CCN(c3ccncc3)CC2)c1 (stereo not drawn)
14,140 to 141,CSC(Cc1ccc(OCCN(C)c2nc3ccccc3o2)cc1)C(=O)O (stereo not drawn)
15,166 to 167,CC#Cc1ccc2[nH]c(C(=O)OCC)cc2c1
16,164 to 165,CCCC(=O)Cc1ccc(C(=O)Nc2ccc3cc(CN4CCCCC4)cnc3c2C)cc1
17,271 to 272,CC(C)CN1C(=O)[C@@H](CC(N)=O)O[C@H](c2ccccc2Cl)c2cc(Cl)ccc21 (relative stereo)
18,216 to 218,COc1cc2nc(N3CCN(C(=O)C4CC=CC4)CC3)nc(N)c2cc1OC
19,159 to 161,CC[C@H](C)[C@H](OCc1ccccc1)[C@H]1[C@H]([N+](=O)[O-])[C@H](C2CC2)N[C@@H]1C(=O)O
20,208 to 210,COc1ccc(-c2c3c(cc4ccc(OCc5ccccc5)cc24)C(=O)NC3=O)cc1
21,55 to 57,CC(C)Cn1c(=O)n(C)c(=O)c2c(-c3ccccc3F)n(Cc3csc4ccccc34)nc21
22,122 to 124,CN(C=O)C1c2ccccc2CCc2cc(Cl)ccc21 (stereo not drawn)
23,37.2 to 38.4,CCOC(=O)CCCOc1ccccc1O
24,270,O=C(O)c1ccc(COc2ccccc2)nc1C(=O)O
25,196 to 200,N#Cc1cc(-c2c(-c3ccccc3)nn3ccccc23)cn(CCC(=O)O)c1=O
26,216 to 217,Cc1cc(C2CC2)nc(NC(=O)NS(=O)(=O)c2cccc3c2OS(=O)(=O)C(C)C3)n1 (stereo not drawn)
27,73 to 76,CCCC(NOCC)=C1C(=O)CC(c2cc3ccccc3s2)CC1=O (stereo not drawn)
28,115 to 117,CC(=O)c1cc(F)ccc1Oc1nc2ccc(Br)cc2cc1Cc1ccccc1
29,188 to 190,CCOC(=O)c1ccc2nc3ccsc3c(=O)n2c1
